In ChEMBL document CHEMBL1201862, “PubChem BioAssay data set” (2004):
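Assay format: 96-well plates, 48-hour exposure. Abbreviation: GI50, concentration required for 50% inhibition of growth.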 The source made the active and inactive calls. No stated cut-off is given here; in the data, active = GI50 up to about 1.1 µM and inactive = higher.

Tests used:
Test in all cases: NCI tumour cell line growth inhibition, 48 h
786-0 = system: 786-0
A498 = system: A498
A549 = system: A549
ACHN = system: ACHN
BT-549 = system: BT-549
CAKI-1 = system: CAKI-1
CCRF-CEM = system: CCRF-CEM
COLO 205 = system: COLO 205
DU-145 = system: DU-145
EKVX = system: EKVX
HCC 2998 = system: HCC 2998
HCT-116 = system: HCT-116
HCT-15 = system: HCT-15
HL-60 = system: HL-60
HOP-62 = system: HOP-62
HOP-92 = system: HOP-92
HT-29 = system: HT-29
IGROV-1 = system: IGROV-1
K562 = system: K562
KM12 = system: KM12
M14 = system: M14
MCF7 = system: MCF7
MDA-MB-231 = system: MDA-MB-231
MDA-MB-435 = system: MDA-MB-435
MDA-N = system: MDA-N
MOLT-4 = system: MOLT-4
Malme-3M = system: Malme-3M
NCI-H23 = system: NCI-H23
NCI-H460 = system: NCI-H460
NCI-H522 = system: NCI-H522
NCI/ADR-RES = system: NCI/ADR-RES
OVCAR-3 = system: OVCAR-3
OVCAR-5 = system: OVCAR-5
OVCAR-8 = system: OVCAR-8
PC-3 = system: PC-3
RPMI-8226 = system: RPMI-8226
RXF 393 = system: RXF 393
SF-268 = system: SF-268
SF-295 = system: SF-295
SF-539 = system: SF-539
SK-MEL-28 = system: SK-MEL-28
SK-MEL-2 = system: SK-MEL-2
SK-MEL-5 = system: SK-MEL-5
SN12C = system: SN12C
SNB-19 = system: SNB-19
SNB-75 = system: SNB-75
SR = system: SR
SW-620 = system: SW-620
T47D = system: T47D
U-251 = system: U-251
UACC-257 = system: UACC-257
UACC-62 = system: UACC-62
UO-31 = system: UO-31
Hs-578T = system: Hs-578T
LOX IMVI = system: LOX IMVI
NCI-H226 = system: NCI-H226
OVCAR-4 = system: OVCAR-4
SK-OV-3 = system: SK-OV-3
TK-10 = system: TK-10

Measured: GI50

COc1c2cc(C(C)(C)C)cc1Cc1cccc(c1OCc1cccc([N+](=O)[O-])c1)Cc1cc(C(C)(C)C)cc(c1OC)Cc1cccc(c1OCc1cccc([N+](=O)[O-])c1)Cc1cc(C(C)(C)C)cc(c1OC)Cc1cccc(c1OCc1cccc([N+](=O)[O-])c1)C2
active: BT-549 0.005 µM
> 50 µM: HCT-15
inactive: 786-0 > 50 µM | A498 > 50 µM | A549 > 50 µM | ACHN > 50 µM | CAKI-1 > 50 µM | CCRF-CEM > 5 µM | COLO 205 > 50 µM | DU-145 > 50 µM | EKVX > 50 µM | HCC 2998 > 50 µM | HCT-116 > 50 µM | HL-60 > 50 µM | HOP-62 > 50 µM | HOP-92 > 50 µM | HT-29 > 50 µM | IGROV-1 > 50 µM | K562 > 50 µM | KM12 > 50 µM | M14 > 50 µM | MCF7 > 50 µM | MDA-MB-231 > 50 µM | MDA-MB-435 > 50 µM | MDA-N > 50 µM | MOLT-4 > 50 µM | Malme-3M > 50 µM | NCI-H23 > 50 µM | NCI-H460 > 50 µM | NCI-H522 > 50 µM | NCI/ADR-RES > 50 µM | OVCAR-3 > 50 µM | OVCAR-5 > 50 µM | OVCAR-8 > 50 µM | PC-3 > 50 µM | RPMI-8226 > 50 µM | RXF 393 > 50 µM | SF-268 > 50 µM | SF-295 > 50 µM | SF-539 > 50 µM | SK-MEL-28 > 50 µM | SK-MEL-2 > 50 µM | SK-MEL-5 > 50 µM | SN12C > 50 µM | SNB-19 > 50 µM | SNB-75 23.3 µM | SR > 50 µM | SW-620 > 50 µM | T47D > 50 µM | U-251 > 50 µM | UACC-257 > 50 µM | UACC-62 > 50 µM | UO-31 > 50 µM

CC(SC(=S)N1CCCC1)C(=O)Nc1nnc(-c2ccc(Cl)cc2)o1 (stereo not given)
17 µM: HCT-15
active: CCRF-CEM < 0.01 µM | HL-60 < 0.01 µM
inactive: 786-0 14.1 µM | A498 34 µM | A549 31 µM | ACHN 33 µM | BT-549 39.8 µM | COLO 205 37.6 µM | DU-145 44.2 µM | HCC 2998 57.4 µM | HCT-116 19.5 µM | HOP-62 34.1 µM | HOP-92 65.8 µM | HT-29 21.8 µM | Hs-578T 44.8 µM | IGROV-1 32 µM | K562 8.85 µM | LOX IMVI 18.7 µM | M14 15.5 µM | MCF7 33.7 µM | MDA-MB-231 40 µM | MDA-MB-435 36.1 µM | Malme-3M 23.8 µM | NCI-H226 40.3 µM | NCI-H23 39.5 µM | NCI-H460 39.4 µM | NCI/ADR-RES 22.8 µM | OVCAR-3 32.7 µM | OVCAR-4 35.5 µM | OVCAR-5 33.2 µM | OVCAR-8 40.1 µM | PC-3 35.6 µM | RPMI-8226 14.6 µM | RXF 393 55.2 µM | SF-268 18 µM | SF-539 85.3 µM | SK-MEL-28 46.7 µM | SK-MEL-2 30.5 µM | SK-MEL-5 29.5 µM | SK-OV-3 52.7 µM | SN12C 17.7 µM | SNB-19 35.6 µM | SNB-75 45.9 µM | SW-620 36.6 µM | T47D 48.8 µM | TK-10 50.4 µM | U-251 29.9 µM | UACC-257 40.4 µM | UACC-62 30.5 µM | UO-31 19.2 µM

COc1ccccc1-c1cc(O)c2ccc(C)nc2n1
43.4 µM: HCT-15
inactive: A498 > 100 µM | A549 > 100 µM | ACHN > 100 µM | BT-549 > 100 µM | CAKI-1 > 100 µM | CCRF-CEM > 100 µM | COLO 205 54.1 µM | DU-145 > 100 µM | EKVX 97.3 µM | HCC 2998 > 100 µM | HOP-62 > 100 µM | HOP-92 32.8 µM | HT-29 26.6 µM | Hs-578T > 100 µM | IGROV-1 40.6 µM | K562 58.9 µM | KM12 42.6 µM | LOX IMVI > 100 µM | M14 98.2 µM | MCF7 47.4 µM | MDA-MB-231 > 100 µM | MOLT-4 > 100 µM | Malme-3M 51.5 µM | NCI-H226 > 100 µM | NCI-H23 > 100 µM | NCI-H522 56.6 µM | NCI/ADR-RES > 100 µM | OVCAR-4 > 100 µM | OVCAR-5 > 100 µM | OVCAR-8 > 100 µM | RPMI-8226 > 100 µM | RXF 393 > 100 µM | SF-268 > 100 µM | SF-539 > 100 µM | SK-MEL-28 > 100 µM | SK-MEL-2 > 100 µM | SK-OV-3 > 100 µM | SN12C > 100 µM | SNB-19 > 100 µM | SW-620 50.9 µM | T47D > 100 µM | TK-10 > 100 µM | UACC-257 > 100 µM | UACC-62 > 100 µM | UO-31 > 100 µM
